The test system of assay [1] is Cre-mediated GFP expression in HEK293T cells. Kind of assay: Inducible Cre site-specific DNA recombination, LoxP-STOP-LoxP-GFP reporter. The settings on record: 100 nM dTAG-13 or 1 μM dBRD9, 2 days, FIGS. 3A and 17. In kind it is cell-based, human. How it is done: (§1) Fluorescence assay using flow cytometry analysis. Cells were treated with 0.05% Trpsin EDTA (Thermo Fisher Scientific no. 25300054) or TrypLE (Thermo Fisher Scientific no. 12605028) after transfection and centrifuged at 3000 g for 5 min. Supernatant was removed and the cell pellet was resuspended with 200 μL phosphate buffered saline (PBS) without calcium and magnesium (Thermo Fisher Scientific no. 10010023). Cells were transferred into 12×75 mm flow tubes (Global Scientific no. 110410). Cells were analyzed by MA900 flow cytometry (SONY). 405 nm laser (FL6 filter) was used for testing the BFP channel. 488 nm (FL1 filter) was used for testing the EYFP and GFP channel. Automated alignment using Automatic Setup Beads kit (SONY no. LE-B3001) is performed before running samples. In FIGS. 3A, 3B, and 17, experiments were performed under 2% FSC, 17% BSC, 24% FL1. In FIG. 18, experiments were performed under 2% FSC, 17% BSC, 27% FL1. All the other experiments were performed under 2% FSC, 17% BSC, 24% FL1 and 27% FL6. Flow cytometry data was processed and analyzed by FlowJo 10. Events were first gated with forward scatter-Area (FSC-A) and side scatter-Area (SSC-A) to select viable cells and remove the debris and dead cells. Cells were further gated with FSC-A and FSC-Height (FSC-H) for selecting single cells. The mean intensity of the reporter fluorescent protein (BFP and EYFP) in viable and single cell populations were calculated by FlowJo 10 as the mean of FL6-A and FL1-A. When calculating the fold change of relative fluorescence units (RFU), the relative fluorescence units of EYFP was calculated by dividing the mean of fluorescence intensity of EYFP with the mean of BFP fluorescence intensity for normalization as the following formula: […]
Transfection and microscopy. […]

In assay [2] the test system is EYFP and BFP expression in HEK293T cells. Nature of the assay: Dual PROTAC-based inducible gene cassettes (EYFP and BFP), microscopy. The format is cell-based, human. The settings on record: GAL4-FKBP12^F36V + VHL-VPR driving EYFP; TetR-BRD9BD + CRBN-VPR driving BFP; 1 μM, FIG. 2B. The method, then:
(§2) Transfection and microscopy. HEK293T cells (American Type Culture Collection, no. CRL-3216) were cultured with high-glucose Dulbecco's modified Eagle's medium (DMEM) (Thermo Fisher Scientific no. 10569044) with 10% fetal bovine serum (FBS) (Thermo Fisher Scientific no. 10437028) and 1×penicillin-streptomycin (Thermo Fisher Scientific no. 15140122) at 37° C. with 5% CO2. Except for the data in FIGS. 3C, 3E, and 3H, cells were plated into 96 well plate (Corning no. 3598) and transfected by Polyethyleneimine Max (PEI Max) (Polysciences no. 24765-1). 1.5 μL PEI Max (1 mg/mL, pH=7.1) and 100 μl DMEM were mixed with plasmids to be slowly dropped into the cell medium after 30 mins of incubation. Medium was changed 12 hours post-transfection. The inductive small molecules, including Rapamycin (STEM CELL technologies no. 73362), dTAG-13 (TOCRIS no. 6605/5), dTAG^V-1 (TOCRIS no. 6744-5), dBRD9 (TOCRIS no. 6606/5), dTRIM24 (TOCRIS no. 6607/5), MZ1 (TOCRIS no. 6154/5), AT1 (TOCRIS no. 6356/5), TL13-12 (TOCRIS no. 6744/5), TL13-112 (TOCRIS no. 6745/5), dTAG-7 (TOCRIS no. 69125), ZXH3-26 (TOCRIS no. 6713/5) and ABA (GoldBio no. A-050-100), dissolved in Dimethyl sulfoxide (DMSO) (Sigma, no. D8418) were added. For the microscopy observation, the images were taken by Microscopy EVOS (Life Technologies) and processed by ImageJ (Schneider et al., 2012). If not otherwise noted, 60 ng of each plasmid were used for each sample.
The inventors next tested the feasibility of dual PROTAC-based inducible gene cassettes (FIG. 15). In the first cassette, GAL4 was fused with FKBP12^F36V, and VHL was ligated with VPR to drive EYFP expression in response to dTAG^V-1. In the second cassette, TetR was fused with BRD9BD, and CRBN was connected with VPR to drive blue fluorescence protein (BFP) expression in the presence of dBRD9. […] As biological computation relies on the protein or DNA to execute Boolean logic gate operation in living organisms for cell discrimination and disease diagnosis (3, 11, 42), the inventors next explored the possibility of PROTAC-CID enabled logic gate biological computation. By placing EYFP under control of the TRE (Tetracycline response element) and pUAS-1 promoter, the inventors observed strong EYFP expression by using one or two PROTACs, achieving clear logic OR gate responses (FIGS. 2C and 16B). To develop a more sophisticated logic AND gate, the inventors took advantage of two orthogonal site-specific DNA recombinases (Cre and Dre) for biological computation (43). […] In this gene circuit, only in the presence of both dTAG-13 and dBRD9 inducers, Dre and Cre can be expressed to remove their respective “STOP” signals, resulting in the eventual GFP expression as a clear logic AND readout (FIGS. 2D and 16C).

The next assay concerns the target GAL4-FKBP12 (UniProt P04386). Nature of the assay: cell-based or functional assay.
The target in another assay is GAL4-FKBP12^F36V (human). Nature of the assay: cell-based or functional assay.
The next assay addresses BRD4^BD2-VPR (human). Kind of assay: cell-based or functional assay.
A further assay has as its target TRIM24^BD-VPR (human). Nature of the assay: cell-based or functional assay.
Assay [3] has as its system pUAS-1-driven EYFP expression in HEK293T cells transfected with GAL4- and VPR-fused PROTAC target protein / E3 ubiquitin ligase. Nature of the assay: PROTAC-CID inducible EYFP gene activation, flow cytometry. The following applies: FIG. 13A. In kind it is cell-based, human. How it is done:
as §1
Next, the mean of the normalized relative fluorescence units of induced group were divided by the value of control group for calculating the fold change as the following formula: […]
as §2
Step-by-step fluorescence protein activation assay protocol. Reagents: • 1. PEI Max (Polysciences no. 24765-1) • 2. DMEM, high glucose, GlutaMAX™ Supplement, pyruvate (Thermo Fisher Scientific no. 10569044) • 3. Penicillin-Streptomycin (10,000 U/mL) (Thermo Fisher Scientific no. 15140122) • 4. Fetal Bovine Serum 500ML (FBS) (Thermo Fisher Scientific no. 10437028) • 5. TrypLE™ Express Enzyme (1×), phenol red (Thermo Fisher Scientific no. 12605068) • 6. PBS pH=7.4 (Thermo Fisher Scientific no. 10010023) • 7. Sony sorting chip […] for MA900 (SONY no. LE-C3210) • 8. Automatic Setup Beads kit (SONY no. LE-B3001) • 9. […]
For orientation: A flow cytometer gives signals particle by particle.

The next assay deals with wild-type FKBP12 (Homo sapiens, UniProt P62942). The settings on record: refs (32, 36); cited from earlier work.
Another assay addresses PYL-VPR (UniProt Q8VZS8). Nature of the assay: cell-based or functional assay.
The mark [4] stands for this setting: Table 4 nonlinear regression of EYFP activation.

Data on seven molecules can be found in US20250382631A1, “PROTAC-CID SYSTEMS FOR USE IN MULTIPLEX GENE REGULATION” (William Marsh Rice University, priority 2022, published 2025).

Like-named read-outs stand apart in the source and are kept apart here. Some results are limits rather than exact numbers.

Chain of wild-type FKBP12 (P62942 whole entry, species assumed): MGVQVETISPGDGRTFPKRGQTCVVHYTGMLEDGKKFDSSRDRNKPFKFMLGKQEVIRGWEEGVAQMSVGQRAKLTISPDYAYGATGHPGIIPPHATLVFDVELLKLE
Chain of PYL-VPR (Q8VZS8 33-209): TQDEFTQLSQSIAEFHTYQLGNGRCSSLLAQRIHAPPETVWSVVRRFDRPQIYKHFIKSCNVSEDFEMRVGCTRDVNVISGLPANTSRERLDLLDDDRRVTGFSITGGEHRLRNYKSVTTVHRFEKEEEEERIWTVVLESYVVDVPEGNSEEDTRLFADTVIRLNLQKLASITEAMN

With `COc1cc(-c2cn(C)c(=O)c3cnccc23)cc(OC)c1CN(C)CC(=O)NCCOCCOCCNc1cccc2c1C(=O)N(C1CCC(=O)NC1=O)C2=O` (stereo not shown) [dBRD9], the “GFP signal, two-layer genetic circuit driving Cre” value in assay [1] was “strong GFP signal”. The “EYFP / BFP expression from dual inducible cassettes” value in assay [2] is recorded as “expression only in the presence of its corresponding inducer”.

Take FRB-VPR (from UniProt P42345 2021-2113): in the assay with GAL4-FKBP12, the EC50 of the inducer Rapamycin for EYFP gene activation (dose-response, FIG. 13A) stood at 6.32 nM and the fold EYFP gene activation with rapamycin came to 355 fold.

VHL-VPR (from UniProt P40337 1-213) returned an EC50 of the inducer dTAG^V-1 for EYFP gene activation (dose-response, FIG. 13A) with GAL4-FKBP12^F36V (human) of 228 nM.

In the assay with GAL4-FKBP12^F36V (human), CRBN-VPR showed an EC50 of the inducer dTAG-13 for EYFP gene activation (dose-response, FIG. 13A) of 53 nM and a fold increase in EYFP expression with dTAG-13 greater than 100 fold.

As for GAL4-VHL fusion protein, the EC50 of the inducer MZ1 for EYFP gene activation (dose-response, FIG. 13A) with BRD4^BD2-VPR (human) worked out at 32.4 nM. The same molecule returned an EC50 of the inducer dTRIM24 for EYFP gene activation (dose-response, FIG. 13A) in the assay with TRIM24^BD-VPR (human) of 6350 nM.

For orientation: EC50 means the concentration at which the effect is half-maximal. Take `CC[C@H](C(=O)N1CCCC[C@H]1C(=O)O[C@H](CCc1ccc(OC)c(OC)c1)c1ccccc1OCC(=O)NCCCCCCC(=O)N[C@H](C(=O)N1C[C@H](O)C[C@H]1C(=O)N[C@@H](C)c1ccc(-c2scnc2C)cc1)C(C)(C)C)c1cc(OC)c(OC)c(OC)c1` [dTAG^V-1]: in [3] (setting [4]), the “Bottom (best-fit value)” value is 0.9420, the “Span (best-fit value)” value is listed as 55.73 and the “Top (best-fit value)” value is 56.67. In addition, in [3] (Table 4 nonlinear regression), the “Hillslope (best-fit value)” value turned out to be 1.937 and the “logEC50 (best-fit value)” value was found to be 2.358. Further, in [3] (Table 4 nonlinear regression, Prism 9 [Agonist] vs. response variable slope (four parameters), no unit in table (the source gives nM), read-out: EC50 (best-fit value)), the concentration for a half-maximal effect (EC50) is 228 nM. In [3] (dose-response, read-out: EC50 for gene activation), the EC50 worked out at 228 nM. Besides, on wild-type FKBP12, the “degradation of wild-type FKBP12” value is “do not degrade wild-type FKBP12”. Also, in [2], the “EYFP / BFP expression from dual inducible cassettes” value is “expression only in the presence of its corresponding inducer”.

“GAL4-ABI (from UniProt P04386 1-147; P49597 126-423)”: in the assay with PYL-VPR, the EC50 of the inducer ABA for EYFP gene activation (dose-response, FIG. 13A) was found to be 763 nM.
